Holding throughout (type): cell-based
For assay [1], the system named is p85α–p85β complex. Kind of assay: Co-immunoprecipitation of V5-p85β with FLAG-p85α from HEK293T cells. The following applies: serum starved (0.05% serum, 16 h), then EGF 100 ng/ml for 5 min or insulin 100 μg/ml for 90 min; anti-FLAG immunoprecipitation; Fig. 6B. Here is the method:
(§1) Figure 6 Dimerization of the regulatory subunits. HEK293T cells were transfected with control (GFP), FLAG-p50α (A) or FLAG-p85α (B) alone or with V5-p85β. Expression of the proteins in whole cell lysates (WCLs) is shown in the bottom panels. As indicated, cells were cultured in high serum (10% serum) or serum starved (0.05% serum) for 16 h and prior to lysis were either left untreated or stimulated with either EGF (100 ng/ml for 5 min) or insulin (100 μg/ml for 90 min). Cells were harvested 40 h after transfection and subject to immunoprecipitation using anti-FLAG antibodies. Co-precipitation of V5-p85β was assessed by Western blotting of immunoprecipitated samples using anti-V5 antibodies (top panels). C, WT p85β, WT p50α, and Y307D p50α (equivalent to Tyr607 in p85α) were expressed alone or co-expressed in HEK293T cells cultured in low serum. Samples of WCLs were analyzed by Western blotting using the antibodies indicated and are shown in lower panels. GAPDH is included as a loading control. FLAG-tagged p50α variants were immunoprecipitated from cell lysates using an anti-FLAG antibody, and the co-immunoprecipitation of p85β was assessed using an anti-V5 antibody (top panels). Results are representative of at least three independent experiments. […]

Assay [2] relates to p50α–p85β complex. Put plainly: Co-immunoprecipitation of V5-p85β with FLAG-p50α from HEK293T cells. The following applies: serum starved (0.05% serum, 16 h), insulin 100 μg/ml for 90 min; anti-FLAG immunoprecipitation; Fig. 6A. The procedure:
as §1

The subject of assay [3] is ACK–p85α complex. Put plainly: Co-immunoprecipitation of ACK with p85α from nuclear-enriched fractions of HEK293T cells. The conditions noted are these: AIM-100 8 μM, anti-FLAG immunoprecipitation. The procedure:
(§2) Figure 7 Subcellular localization of the ACK–p85α complex. ACK and WT p85α were expressed alone and together in HEK293T cells. Where indicated, cells were treated with 8 μM AIM-100. Fractionation was judged using anti-HSP56 to indicate cytoplasmic extracts and anti-fibrillarin to indicate nuclear-enriched fractions. Nuclear and cytoplasmic-enriched fractions were normalized using the Bradford assay, and FLAG-p85α was immunoprecipitated from fractions containing equal total protein using an anti-FLAG antibody. Top panel: Immunoprecipitation of FLAG-p85α and co-immunoprecipitation of HA-ACK was assessed by Western blotting using anti-FLAG and anti-HA antibodies. Bottom panel: Expression of FLAG-p85α and HA-ACK along with active ACK levels was confirmed by Western blotting of whole cell lysate (WCL) samples collected prior to cell fractionation. ACK, activated Cdc42-associated kinase.
Small-scale co-immunoprecipitations were performed using 1 μg antibody cross-linked to Protein G Dynabeads (Life Technologies) with dimethyl pimelimidate. HEK293T cells were grown in 10 cm dishes to 70% confluence and then transfected for 40 h. […]
Cells were grown in 10 cm dishes to 70% confluence and then transfected for 40 h. […] Cytoplasmic and nuclear-enriched fractions were then either analyzed by SDS-PAGE gel directly or used in co-immunoprecipitation studies.

For assay [4], the system named is HEK293T cells expressing Y599F p85β. Kind of assay: Proliferation of HEK293T cells stably expressing Y599F p85β. The following applies: AIM-100 8 μM; DMEM + 10% FBS; 1 μg/ml doxycycline; live cell counts, fold change over 24 h; three independent experiments. The procedure: (§3) Figure 4 Proliferation of HEK293T cells expressing ACK and p85β variants.A, proliferation of HEK293T cells stably expressing wtACK and caACK in 1% FBS. HEK293T cells stably expressing empty vector (control) or HA-tagged wtACK or caACK were seeded at a density of 3 × 10^4 cells per well. Cells were plated in replicates of three, and live cell counts were obtained at the times indicated. Data are plotted as fold change over t = 0 (seeding density). Data from three independent experiments are shown. Error bars represent SD. […] GAPDH is included as a loading control. Data are represented on the right in a bar chart with group significance testing performed by a two-way ANOVA; ∗p <0.05; ∗∗p < 0.01. B, proliferation of HEK293T cells stably expressing empty vector (control), WT p85β, or Y599F p85β. HEK293T cells stably expressing inducible FLAG-tagged WT p85β or p85β Y599F were seeded at a density of 3 × 10^4 cells per well and incubated at 37 °C for 16 h. All cells were then treated with 1 μg/ml doxycycline and incubated at 37 °C for the times indicated before live cell counts were taken. Data are plotted as fold change over the cell count at 24 h post doxycycline treatment. […]
(§4) Matched cell lines were chosen that had similar expression levels of the transgene. […] Cells were trypsinized and dispersed using a syringe before being counted using a Countess automated cell counter at specific timepoints. […]

Assay [5] concerns HEK293T cells expressing WT p85β. Put plainly: Proliferation of HEK293T cells stably expressing WT p85β. The following applies: AIM-100 8 μM; DMEM + 10% FBS; 1 μg/ml doxycycline; live cell counts, fold change over 24 h; three independent experiments. Here is the method:
as §3, §4

For assay [6], the system named is pTyr284 ACK. Kind of assay: Active ACK level (pTyr284 ACK Western blot) in HEK293T cells. The following applies: AIM-100 8 μM; HEK293T cells expressing ACK and WT p85α; Western blot of whole cell lysate. The procedure:
as §2, with “kinase. […]” for “kinase.”

“EGF: EGF (a known stimulator of ACK) (NSDSECPLSHDGYCLHDGVCMYIEALDKYACNCVVGYIGERCQYRDLKWWELR; UniProt P01133 971-1023, looked up)”: in assay [1], the “p85α–p85β complex formation” value is recorded as “increase”.
For the molecule “insulin: Tyr607 phosphorylation has been detected downstream of insulin stimulation”, the “p85α–p85β complex formation” value in assay [1] is listed as “not enhanced”. Moreover, in assay [2], the “p50α–p85β complex formation” value is given as “increased complex formation”.
Regarding `c1ccc(-c2oc3ncnc(NC[C@@H]4CCCO4)c3c2-c2ccccc2)cc1` [AIM-100], the “p85α–ACK complex formation in the nucleus” value in assay [3] is on record as “did not block p85α–ACK complex formation”. For the same molecule, in assay [4], the “effect on proliferation of cells expressing Y599F p85β” value was “did not affect”. For the same molecule, the “effect on proliferation of cells expressing WT p85β” value in assay [5] is “grew at a reduced rate”. Also, the “active ACK levels (pTyr284 ACK)” value in assay [6] is “reduced active ACK levels”.

(Values after publication PMC9127371, “Assembly of nuclear dimers of PI3K regulatory subunits is regulated by the Cdc42-activated tyrosine kinase ACK” (The Journal of Biological Chemistry, 2022).)
